{"source": "PubChem BioAssay AID1259409", "about": "(Chemical Carcinogenesis Research Information System (CCRIS), 2018)", "origin": "cited, not measured here", "system": "rodent chemically induced tumor inhibition, incidence and multiplicity", "assay": "CCRIS tumor inhibitor studies", "data": [{"molecule": "CC[C@H](C)C(=O)O[C@H]1C[C@@H](C)C=C2C=C[C@H](C)[C@H](CC[C@@H]3C[C@@H](O)CC(=O)O3)[C@H]21", "values": [{"measurement": "tumour outcome (control, treated, inhibition, significance)", "setting": "Carcinogen: 4-(N-METHYL-N-NITROSAMINO)-1-(3-PYRIDYL)-1-BUTANONE, 64091-91-4, Dose [Inhibitor]: 0, 40 PPM IN THE DIET FOR 6 MO BEGINNING 1 WK POST CARCINOGEN DOSE (STUDY DURATION: 6 MO), Route [Inhibitor]: ORAL, Species: MOUSE, Strain/Sex: STRAIN-A/MALE, Target Tissue: Type of Lesion: LUNG: TUMOR, Dose [Carcinogen]: 10 UMOL ONCE, Promoter: NONE USED", "result": "15/15 (100%), 15/15 (100%), 0%, not significant"}, {"measurement": "tumour outcome (control, treated, inhibition, significance)", "setting": "Carcinogen: 4-(N-METHYL-N-NITROSAMINO)-1-(3-PYRIDYL)-1-BUTANONE, 64091-91-4, Dose [Inhibitor]: 0, 160 PPM IN THE DIET FOR 6 MO BEGINNING 1 WK POST CARCINOGEN DOSE (STUDY DURATION: 6 MO), Route [Inhibitor]: ORAL, Species: MOUSE, Strain/Sex: STRAIN-A/MALE, Target Tissue: Type of Lesion: LUNG: TUMOR, Dose [Carcinogen]: 10 UMOL ONCE, Promoter: NONE USED", "result": "15/15 (100%), 15/15 (100%), 0%, not significant"}, {"measurement": "tumour outcome (control, treated, inhibition, significance)", "setting": "Carcinogen: 4-(N-METHYL-N-NITROSAMINO)-1-(3-PYRIDYL)-1-BUTANONE, 64091-91-4, Dose [Inhibitor]: 0, 400 PPM IN THE DIET FOR 6 MO BEGINNING 1 WK POST CARCINOGEN DOSE (STUDY DURATION: 6 MO), Route [Inhibitor]: ORAL, Species: MOUSE, Strain/Sex: STRAIN-A/MALE, Target Tissue: Type of Lesion: LUNG: TUMOR, Dose [Carcinogen]: 10 UMOL ONCE, Promoter: NONE USED", "result": "15/15 (100%), 12/14 (86%), 14%, not significant"}]}, {"molecule": "O=C1OC(c2ccc(O)cc2)Cc2cccc(O)c21", "note": "(configuration not stated)", "values": [{"measurement": "tumour outcome (control, treated, inhibition, significance)", "setting": "Carcinogen: AZOXYMETHANE [25843-45-2], Dose [Inhibitor]: 200 PPM IN DIET FOR 4 WK BEGINNING 1 WK PRIOR TO FIRST CARCINOGEN DOSE (STUDY DURATION: 35 WK), Route [Inhibitor]: ORAL, Species: RAT, Strain/Sex: F344/MALE, Target Tissue: Type of Lesion: COLON: ADENOMA, Dose [Carcinogen]: 15 MG/KG BW 1X/WK FOR 3 WK (STUDY DURATION: 35 WK), Promoter: NONE", "result": "6/28 (21%), 2/29 (7%), 67%, not significant"}, {"measurement": "tumour outcome (control, treated, inhibition, significance)", "setting": "Carcinogen: AZOXYMETHANE [25843-45-2], Dose [Inhibitor]: 200 PPM IN DIET FOR 4 WK BEGINNING 1 WK PRIOR TO FIRST CARCINOGEN DOSE (STUDY DURATION: 35 WK), Route [Inhibitor]: ORAL, Species: RAT, Strain/Sex: F344/MALE, Target Tissue: Type of Lesion: COLON: CARCINOMA, Dose [Carcinogen]: 15 MG/KG BW 1X/WK FOR 3 WK (STUDY DURATION: 35 WK), Promoter: NONE", "result": "8/28 (29%), 10/29 (34%), -17%, not significant"}, {"measurement": "tumour outcome (control, treated, inhibition, significance)", "setting": "Carcinogen: AZOXYMETHANE [25843-45-2], Dose [Inhibitor]: 200 PPM IN DIET FOR 4 WK BEGINNING 1 WK PRIOR TO FIRST CARCINOGEN DOSE (STUDY DURATION: 35 WK), Route [Inhibitor]: ORAL, Species: RAT, Strain/Sex: F344/MALE, Target Tissue: Type of Lesion: SMALL INTESTINE: CARCINOMA, Dose [Carcinogen]: 15 MG/KG BW 1X/WK FOR 3 WK (STUDY DURATION: 35 WK), Promoter: NONE", "result": "7/28 (25%), 4/29 (14%), 44%, not significant"}]}, {"molecule": "C=C1CC[C@H]2[C@@]3(C)CCC[C@]2(C)[C@H]1CO[C@@H](C(=O)OC)[C@H](CC(=O)O)C(=O)OC[C@]1(C)CCC[C@]2(C)[C@@H](CO[C@@H](C(=O)OC)[C@H](CC(=O)O)C(=O)OC3)C(=C)CC[C@@H]12", "values": [{"measurement": "tumour outcome (control, treated, inhibition, significance)", "setting": "Carcinogen: 7,12-DIMETHYLBENZ[A]ANTHRACENE, 57-97-6, Dose [Inhibitor]: 0, 1 MG 2/WK FOR 20 WK APPLIED 10 MIN PRIOR TO EACH PROMOTER DOSE (STUDY DURATION: 20 WK), Route [Inhibitor]: DERMAL, Species: MOUSE, Strain/Sex: CD-1/FEMALE, Target Tissue: Type of Lesion: SKIN: TUMOR, Dose [Carcinogen]: 100 UG ONCE, Promoter: OKADAIC ACID, 78111-17-8", "result": "73%, 80%, -10%, not significant"}, {"measurement": "tumour outcome (control, treated, inhibition, significance)", "setting": "Carcinogen: 7,12-DIMETHYLBENZ[A]ANTHRACENE, 57-97-6, Dose [Inhibitor]: 0, 5 MG 2/WK FOR 20 WK APPLIED 10 MIN PRIOR TO EACH PROMOTER DOSE (STUDY DURATION: 20 WK), Route [Inhibitor]: DERMAL, Species: MOUSE, Strain/Sex: CD-1/FEMALE, Target Tissue: Type of Lesion: SKIN: TUMOR, Dose [Carcinogen]: 100 UG ONCE, Promoter: OKADAIC ACID, 78111-17-8", "result": "73%, 93%, -27%, not significant"}]}, {"molecule": "S=C=Nc1c2ccccc2c2ccc3cccc4ccc1c2c43", "values": [{"measurement": "outcome", "setting": "Carcinogen: BENZO[A]PYRENE, 50-32-8, Dose [Inhibitor]: 0, 5 UMOL IN ACETONE 4 HR PRIOR TO CARCINOGEN DOSE (STUDY DURATION: 20 WK), Route [Inhibitor]: DERMAL, Species: MOUSE, Strain/Sex: STRAIN-A/FEMALE, Target Tissue: Type of Lesion: SKIN: TUMOR, Dose [Carcinogen]: 0.1 UMOL IN ACETONE ONCE, Promoter: 12-O-TETRADECANOYLPHORBOL-13-ACETATE, 16561-29-8", "result": "85%, 60%, 18%, not significant at 15 wk; 95%, 90%, 5%, not significant at 20 wk"}]}, {"molecule": "CC1(C)CC[C@]2(CO)CC[C@]3(C)C(=CC[C@@H]4[C@@]5(C)CC[C@H](O)[C@@](C)(CO)[C@@H]5CC[C@]43C)[C@H]2C1", "values": [{"measurement": "tumour outcome (control, treated, inhibition, significance)", "setting": "Carcinogen: 7,12-DIMETHYLBENZ[A]ANTHRACENE, 57-97-6, Dose [Inhibitor]: 81 NMOL IN 100 µL ACETONE/DMSO (99:1) APPLIED 40 MIN PRIOR TO EACH PROMOTER DOSE (STUDY DURATION: 18 WK), Route [Inhibitor]: DERMAL, Species: MOUSE, Strain/Sex: ICR, Target Tissue: Type of Lesion: SKIN: CARCINOMA, Dose [Carcinogen]: 100 UG ONCE, Promoter: 12-O-TETRADECANOYLPHORBOL-13-ACETATE, 16561-29-8", "result": "100%, 20%, 80%, not calculated"}]}, {"molecule": "C/C=C(/C)C(=O)OC1c2c(ccc3ccc(=O)oc23)OC(C)(C)C1OC(=O)/C(C)=C\\C", "note": "(configuration not stated)", "values": [{"measurement": "tumour outcome (control, treated, inhibition, significance)", "setting": "Carcinogen: 7,12-DIMETHYLBENZ[A]ANTHRACENE, 57-97-6, Dose [Inhibitor]: 10 UMOL APPLIED 40 MINUTES PRIOR TO PROMOTER DOSE (STUDY DURATION: 20 WK), Route [Inhibitor]: DERMAL, Species: MOUSE, Strain/Sex: ICR/FEMALE, Target Tissue: Type of Lesion: SKIN: PAPILLOMA, Dose [Carcinogen]: 100 UG ONCE", "result": "100%, 0%, 100%, not calculated"}]}, {"molecule": "COc1ccc(CCN(C)CCCC(C#N)(c2ccc(OC)c(OC)c2)C(C)C)cc1OC", "note": "(configuration not stated)", "values": [{"measurement": "tumour outcome (control, treated, inhibition, significance)", "setting": "Carcinogen: 7,12-DIMETHYLBENZ[A]ANTHRACENE, 57-97-6, Dose [Inhibitor]: 0, 3.5 MG/KG/D IN DRINKING WATER (STUDY DURATION: 20 WK), Route [Inhibitor]: ORAL, Species: RAT, Strain/Sex: SPRAGUE-DAWLEY/FEMALE, Target Tissue: Type of Lesion: MAMMARY GLAND: TUMOR, Dose [Carcinogen]: 50 MG/KG ONCE, Promoter: NONE USED", "result": "9/20 (45%), 3/20(15%), 67%, p< 0.05"}, {"measurement": "tumour outcome (control, treated, inhibition, significance)", "setting": "Carcinogen: 7,12-DIMETHYLBENZ[A]ANTHRACENE, 57-97-6, Dose [Inhibitor]: 0, 2 UMOL 1/WK FOR 21 WK APPLIED 1 HR POST EACH PROMOTER DOSE (STUDY DURATION: 21 WK), Route [Inhibitor]: DERMAL, Species: MOUSE, Strain/Sex: SENCAR/FEMALE, Target Tissue: Type of Lesion: SKIN: PAPILLOMA, Dose [Carcinogen]: 25 NMOL ONCE, Promoter: CHRYSAROBIN, 491-58-7", "result": "90%, 82%, 9%, not significant"}, {"measurement": "tumour outcome (control, treated, inhibition, significance)", "setting": "Carcinogen: N-NITROSOMORPHOLINE, 59-89-2, Dose [Inhibitor]: 0, 20 MG/KG BW IN 0.9% SALINE 1/2 D FOR DURATION OF STUDY (STUDY DURATION: 16 WK), Route [Inhibitor]: INTRAPERITONEAL, Species: RAT, Strain/Sex: SPRAGUE-DAWLEY/MALE, Target Tissue: Type of Lesion: LIVER: HEPATOCELLULAR CARCINOMA, Dose [Carcinogen]: 175 MG/L IN DRINKING WATER FOR 8 WK, Promoter: NONE USED", "result": "10/20 (50%), 3/20 (15%), 70%, p<0.05"}]}, {"molecule": "CCCCCCCCCCCCC/C=C/[C@@H](O)[C@H](COP(=O)(O)OCC[N+](C)(C)C)NC=O", "values": [{"measurement": "tumour outcome (control, treated, inhibition, significance)", "setting": "Carcinogen: 1,2-DIMETHYLHYDRAZINE DIHYDROCHLORIDE, 306-37-6, Dose [Inhibitor]: 0, 0.025 G/100 G DIET FOR 28 WK BEGINNING 1 WK POST CARCINOGEN TREATMENT (STUDY DURATION: 59 WK), Route [Inhibitor]: ORAL, Species: MOUSE, Strain/Sex: CF-1/FEMALE, Target Tissue: Type of Lesion: COLON: TUMOR, Dose [Carcinogen]: 20 MG/KG BW 1/WK FOR 6 WK, Promoter: NONE USED", "result": "7/15 (47%), 2/10 (20%), 57%, p=0.08"}, {"measurement": "tumour outcome (control, treated, inhibition, significance)", "setting": "Carcinogen: 1,2-DIMETHYLHYDRAZINE DIHYDROCHLORIDE, 306-37-6, Dose [Inhibitor]: 0, 0.05 G/100 G DIET FOR 28 WK BEGINNING 1 WK POST CARCINOGEN TREATMENT (STUDY DURATION: 59 WK), Route [Inhibitor]: ORAL, Species: MOUSE, Strain/Sex: CF-1/FEMALE, Target Tissue: Type of Lesion: COLON: TUMOR, Dose [Carcinogen]: 20 MG/KG BW 1/WK FOR 6 WK, Promoter: NONE USED", "result": "7/15 (47%), 3/14 (21%), 55%, p=0.08"}, {"measurement": "tumour outcome (control, treated, inhibition, significance)", "setting": "Carcinogen: 1,2-DIMETHYLHYDRAZINE DIHYDROCHLORIDE, 306-37-6, Dose [Inhibitor]: 0, 0.1 G/100 G DIET FOR 28 WK BEGINNING 1 WK POST CARCINOGEN TREATMENT (STUDY DURATION: 59 WK), Route [Inhibitor]: ORAL, Species: MOUSE, Strain/Sex: CF-1/FEMALE, Target Tissue: Type of Lesion: COLON: TUMOR, Dose [Carcinogen]: 20 MG/KG BW 1/WK FOR 6 WK, Promoter: NONE USED", "result": "7/15 (47%), 2/10 (20%), 57%, p=0.08"}]}]}
